In patent publication US11090290B2, “Clonidine and/or clonidine derivatives for use in the prevention of skin injury resulting from radiotherapy” (MONOPAR THERAPEUTICS INC., priority 2015, dated 2021):

Experiments:
[1] = tested on: skin injury following radiotherapy in patients with head and neck cancer; conditions: mucoadhesive buccal tablet 50 μg once daily, from 1 to 3 days before radiotherapy until its end, up to 8 weeks; 50 to 70 Gray plus platinum-based chemotherapy; placebo group 38.7%
Procedure: These patients received, within 15 weeks after curative surgery, a cumulative radiation dose of radiation ranging from 50 to 70 Gray in oral cavity, based on a daily dosing between 1.8 and 2.2 Gy, combined with platinum-based chemotherapy, based on a weekly or tri-weekly cycle. Clonidine was administered in the form of a mucoadhesive tablet that was applied into the mouth, on the upper gum, for about 30 seconds, after which it remained in place for several hours. The treatment with clonidine hydrochloride started from 1 to 3 days before radiotherapy until the end of radiotherapy, for up to 8 weeks. Patients were evaluated twice a week during the radiotherapy period, then one month after stop of radiotherapy.

radiation skin injury = conditions: Journal of Clinical Oncology, Vol. 29, No 20, 2011; even worsened skin adverse reactions; cited from earlier work

Compound	patients showing skin injury after treatment [1] [%]	effect on radiation skin injury compared to a placebo (radiation skin injury)
Cl.Clc1cccc(Cl)c1NC1=NCCN1 [clonidine hydrochloride]	25.5	–
palifermin	–	not to improve radiation skin injury compared to a placebo
